pIC50: −log10 of the molar value. Values after ≈ are worked out from the molar mass of the structure shown. Like-named read-outs stand apart in the source and are kept apart here.
Key:
[1] = system: THLE-2 cells; test: THLE-2 cytotoxicity assay (ATP); details: for pIC50: Homo sapiens; for THLE (cytotoxicity) ATP LC50: THLE-2 cell line
Summary of the method: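 THLE-2 cells in supplemented LHC-8 medium were exposed for 24 or 72 h to final concentrations of 0.01–300 μM. Viability was read as ATP by CellTiter-Glo luminescence and normalized to DMSO vehicle. IC50 came from nonlinear regression of dose-response curves.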

[2] = system: O. gutturosa adult male worms; test: O. gutturosa adult worm ex vivo assay, MTT/formazan viability; type: cell-based, Onchocerca gutturosa; details: supplement, SD in brackets in the PDF table, read-out: O. gutturosa EC50 (uM) MTT viability inhibition
Summary of the method: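 Adult male worms from naturally infected Gambian cattle were kept individually in MEM with 10% newborn calf serum at 37 °C, 5% CO2; four worms per concentration. Motility was scored 0-10 every 24 h to 120 h as a percentage of maximum, with ≥50% reduction versus untreated counted active. Afterwards, MTT (0.5 mg/mL, 30 min) formazan was read at 490 nm.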

[3] = Kinetic solubility measurement; type: physicochemical; details: 10 mM DMSO stock solutions
Summary of the method: (§1)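 Human and rat liver microsomes (0.3 mg/mL) with 1 mM NADPH and 3µM substrate, 30 minutes at 37 °C in pH 7.4 phosphate/MgCl2, triplicate; LC-MS/MS percentage remaining. LogD: octanol/aqueous buffer (pH 7.4, 2.2, 6.8, 5), 24 h shaking at room temperature. Kinetic solubility: 200 µM, 2% DMSO, 24 h, filtered.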

[4] = LogD measurement (octanol-water); type: physicochemical
Summary of the method: as §1

[5] = supplement, read-out: measured logD
[6] = THLE-2, 24 h, read-out: THLE IC50

SMILES	pIC50 ([1]; THLE-2, read-out: THLE IC50)	EC50 ([2]; Onchocerca gutturosa) [µM]	solubility kinetic at 24 h [3] [µM]	logD at 24 h ([4]; pH 7.4, read-out: logD)	logD at 24 h [4, 5]	pIC50 [1, 6]	EC50 [2] [µM]	THLE (cytotoxicity) ATP LC50 [1]
CC(C)Oc1ccc(-c2nsc(Nc3ncccc3C(C)C)n2)nc1 [Compound 25, 3-(5-Isopropoxy-2-pyridyl)-N-(3-isopropyl-2-pyridyl)-1,2,4-thiadiazol-5-amine]	5.49	0.54	2.58 (≈ 0.917 µg/mL)	2.85	2.85			
Cc1cccnc1Nc1nc(-c2ccc(OC3CC3)cn2)ns1 [Compound 11, 3-(5-Cyclopropoxypyridin-2-yl)-N-(3-methylpyridin-2-yl)-1,2,4-thiadiazol-5-amine]		0.02	1.84 (≈ 0.599 µg/mL)	3.4	3.4	< 3.70		
CC(C)Oc1ccc(-c2nsc(Nc3ncccc3N(C)C(=O)C3CC3)n2)nc1 [Compound 50, N-(2-((3-(5-Isopropoxypyridin-2-yl)-1,2,4-thiadiazol-5-yl)amino)pyridin-3-yl)-N-methylcyclopropanecarboxamide]	5.13	2.3	2.71 (≈ 1.11 µg/mL)	2.4	2.4			
Cc1cccnc1Nc1nc(-c2ccc(OC(C)C)cn2)ns1 [Compound 10, 3-(5-Isopropoxypyridin-2-yl)-N-(3-methylpyridin-2-yl)-1,2,4-thiadiazol-5-amine]		0.01	3.2 (≈ 1.05 µg/mL)	2.88	2.88	4.42	0.013	
Cc1ccnc(-c2nsc(Nc3ncccc3C(F)(F)F)n2)c1 [Compound 26, 3-(4-Methylpyridin-2-yl)-N-(3-(trifluoromethyl)pyridin-2-yl)-1,2,4-thiadiazol-5-amine]		0.07	0.9 (≈ 0.304 µg/mL)	2.45	2.45	4.18	0.069	
CC(=O)N(C)c1cccnc1Nc1nc(-c2ccc(OC(C)C)cn2)ns1 [Compound 47, N-(2-((3-(5-Isopropoxypyridin-2-yl)-1,2,4-thiadiazol-5-yl)amino)pyridin-3-yl)-N-methylacetamide]		1.9	109 (≈ 41.9 µg/mL)	1.62	1.62			did not exhibit significant cellular cytotoxity
CC(C)c1ccnc(-c2nsc(Nc3cc(C(F)(F)F)ccn3)n2)c1 [Compound 35, 3-(4-Isopropylpyridin-2-yl)-N-(4-(trifluoromethyl)pyridin-2-yl)-1,2,4-thiadiazol-5-amine]	5.64	0.15	< 1	3	3			
CC(C)c1ccnc(-c2nsc(Nc3ncccc3C(F)(F)F)n2)c1 [Compound 27]		0.07	1.6 (≈ 0.585 µg/mL)	2.5	2.5		0.069	
CNc1cccnc1Nc1nc(-c2ccc(OC(C)C)cn2)ns1 [Compound 30]	4.76	0.59	1.9 (≈ 0.651 µg/mL)	2.9	2.9			
Cc1cccnc1Nc1nc(-c2ccc(OC3CC4(C3)CN(C3CC3)C4)cn2)ns1 [Compound 12, 3-[5-[(2-Cyclopropyl-2-azaspiro[3.3]heptan-6-yl)oxy]-2-pyridyl]-N-(3-methyl-2-pyridyl)-1,2,4-thiadiazol-5-mine]	5.28	0.03	13.1 (≈ 5.5 µg/mL)	2.1	2.1		0.033	
CC(C)Oc1ccc(-c2nsc(Nc3ncccc3N(C)C)n2)nc1 [Compound 31, N^2-(3-(5-Isopropoxypyridin-2-yl)-1,2,4-thiadiazol-5-yl)-N3,N3-dimethylpyridine-2,3-diamine]		0.24	22.5 (≈ 8.02 µg/mL)	3.23	3.23	4.44		did not exhibit significant cellular cytotoxity
Cc1cccnc1Nc1nc(-c2ccc(OC3CCN(C4CC4)CC3)cn2)ns1 [Compound 19, 3-[5-[(1-Cyclopropyl-4-piperidyl)oxy]-2-pyridyl]-N-(3-methyl-2-pyridyl)-1,2,4-thiadiazol-5-amine]		0.19	3.05 (≈ 1.25 µg/mL)	3.3	3.3	3.92		
CN(C)c1cccnc1Nc1nc(-c2ccc(OC3CC3)cn2)ns1 [Compound 32]	6.10	0.56	8.92 (≈ 3.16 µg/mL)	2.5	2.5			

From article PMC9421654, “Discovery of Substituted Di(pyridin-2-yl)-1,2,4-thiadiazol-5-amines as Novel Macrofilaricidal Compounds for the Treatment of Human Filarial Infections” (Journal of Medicinal Chemistry, 2022)
